Data as given in US8202885B2, “Bridged six-membered ring compounds” (Actelion Pharmaceuticals Ltd., priority 2007, dated 2012).

Tested on: human Cav3.1 Cav3.2 or Cav3.3 channel
Assay: In vitro assay T channel (FLIPR calcium fluorescence)
Format: cell-based
Conditions: HEK293 cells expressing human Cav3.1, Cav3.2 or Cav3.3; 10 mM Ca2+-induced fluo-4 fluorescence; determined up to 10 μM; read-out: T channel antagonistic activity IC50
Procedure, shortened: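 IC50 (nM) is the antagonist concentration halving the area under the fluorescence peak evoked by 10 mM Ca2+, relative to vehicle, with testing up to 10 μM. Fluo-4-loaded HEK293 cells expressing each human Cav3 subtype received compound 3 min before Ca2+ addition (TEA-based buffer, pH 7.2); signal monitored 8 min at 2 s intervals.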

SMILES	IC50 [nM]
COc1cccc2[nH]c(CCCN(C)CC[C@]3(OC(=O)C(C)C)C[C@H]4CCC[C@@H]3C=C4c3ccccc3)nc12 (relative stereo) [Example 36A, rac-Isobutyric acid (1R*,5R*,6R*)-6-(2-{[3-(4-methoxy-1H-benzoimidazol-2-yl)-propyl]-methyl-amino}-ethyl)-8-phenyl-bicyclo[3.2.2]non-8-en-6-yl ester]	1010
CC1=C(c2ccccc2)[C@H]2CC[C@@H]1C[C@@]2(O)CCN(C)CCCc1nc2ccccc2[nH]1 (relative stereo) [Example 17, rac-(1R*,2R*,4R*)-2-(2-{[3-(1H-Benzoimidazol-2-yl)-propyl]-methyl-amino}-ethyl)-5-methyl-6-phenyl-bicyclo[2.2.2]oct-5-en-2-ol]	1260
CO[C@]1(c2ccccc2)C[C@H]2CC[C@@H]1C[C@@]2(O)CCN(C)CCCc1nc2ccccc2[nH]1 (relative stereo) [Example 76, rac-(1R*,2R*,4R*,5R*)-2-(2-{[3-(1H-Benzoimidazol-2-yl)-propyl]-methyl-amino}-ethyl)-5-methoxy-5-phenyl-bicyclo[2.2.2]octan-2-ol]	> 10000
COc1ccccc1-c1cnc(CCCN(C)CC[C@]2(OC(=O)C(C)C)C[C@H]3CC[C@@H]2C=C3c2ccccc2)[nH]1 (relative stereo) [Example 72A, rac-Isobutyric acid (1R*,2R*,4R*)-2-[2-({3-[5-(2-methoxy-phenyl)-1H-imidazol-2-yl]-propyl}-methyl-amino)-ethyl]-5-phenyl-bicyclo[2.2.2]oct-5-en-2-yl ester]	2290
CC(C)C(=O)O[C@@]1(CCN(C)CCCc2nc3ccccc3[nH]2)C[C@H]2CC[C@@H]1C[C@]21OCc2ccccc21 (relative stereo) [Example 80A, rac-Isobutyric acid (1R*,2S*,4R*,5R*)-5-(2-{[3-(1H-benzoimidazol-2-yl)-propyl]-methyl-amino}-ethyl)-3′H-spiro(bicyclo[2.2.2]octane-2,1′-isobenzofuran)-5-yl ester]	4180
CC(C)C(=O)O[C@@]1(CCN(C)CCCc2nc3cccc(O)c3[nH]2)C[C@H]2CC[C@@H]1C=C2c1ccccc1 (relative stereo) [Example 35A, rac-Isobutyric acid (1R*,2R*,4R*)-2-(2-{[3-(7-hydroxy-1H-benzoimidazol-2-yl)-propyl]-methyl-amino}-ethyl)-5-phenyl-bicyclo[2.2.2]oct-5-en-2-yl ester]	1340
Cc1cccc(C)c1C1=C[C@H]2CC[C@@H]1C[C@@]2(O)CCN(C)CCCc1nc2ccccc2[nH]1 (relative stereo) [Example 3, rac-(1R*,2R*,4R*)-2-(2-{[3-(1H-Benzoimidazol-2-yl)-propyl]-methyl-amino}-ethyl)-5-(2,6-dimethyl-phenyl)-bicyclo[2.2.2]oct-5-en-2-ol]	6630
COc1ccc(OC)c2[nH]c(CCCN(C)CCC3(OC(=O)C(C)C)CC4CCC3C=C4c3ccccc3)nc12 [Example 70A, Isobutyric acid (1R,2R,4R)-2-(2-{[3-(4,7-dimethoxy-1H-benzoimidazol-2-yl)-propyl]-methyl-amino}-ethyl)-5-phenyl-bicyclo[2.2.2]oct-5-en-2-yl ester or isobutyric acid (1S,2S,4S)-2-(2-{[3-(4,7-dimethoxy-1H-benzoimidazol-2-yl)-propyl]-methyl-amino}-ethyl)-5-phenyl-bicyclo[2.2.2]oct-5-en-2-yl ester]	793
COc1cccc2[nH]c(CCCN(C)CCC3(OC(=O)C(C)C)CC4CCC3C=C4c3ccccc3)nc12 [Example 55A, Isobutyric acid (1R,2R,4R)-2-(2-{[3-(4-methoxy-1H-benzoimidazol-2-yl)-propyl]-methyl-amino}-ethyl)-5-phenyl-bicyclo[2.2.2]oct-5-en-2-yl ester or isobutyric acid (1S,2S,4S)-2-(2-{[3-(4-methoxy-1H-benzoimidazol-2-yl)-propyl]-methyl-amino}-ethyl)-5-phenyl-bicyclo[2.2.2]oct-5-en-2-yl ester]	1070
CN(CCCc1nc2ccccc2[nH]1)CC[C@]1(O)C[C@H]2CC[C@@H]1C=C2c1ccc2ccccc2c1 (relative stereo) [Example 10, rac-(1R*,2R*,4R*)-2-(2-{[3-(1H-Benzoimidazol-2-yl)-propyl]-methyl-amino}-ethyl)-5-naphthalen-2-yl-bicyclo[2.2.2]oct-5-en-2-ol]	5870
COc1cccc2[nH]c(CCCN(C)CCC3(OC(=O)C(C)C)CC4CCC3C=C4c3ccccc3)nc12 [Example 54A, Isobutyric acid (1R,2R,4R)-2-(2-{[3-(4-methoxy-1H-benzoimidazol-2-yl)-propyl]-methyl-amino}-ethyl)-5-phenyl-bicyclo[2.2.2]oct-5-en-2-yl ester or isobutyric acid (1S,2S,4S)-2-(2-{[3-(4-methoxy-1H-benzoimidazol-2-yl)-propyl]-methyl-amino}-ethyl)-5-phenyl-bicyclo[2.2.2]oct-5-en-2-yl ester]	1140
Cc1ccc(C2=C[C@H]3CC[C@@H]2C[C@]3(CCN(C)CCCc2nc3ccccc3[nH]2)OC(=O)C(C)C)cc1 (relative stereo) [Example 6A, rac-Isobutyric acid (1R*,2R*,4R*)-2-(2-{[3-(1H-benzoimidazol-2-yl)-propyl]-methyl-amino}-ethyl)-5-(4-methyl-phenyl)-bicyclo[2.2.2]oct-5-en-2-yl ester]	6830
CO[C@@]1(c2ccccc2)C[C@H]2CC[C@@H]1C[C@]2(O)CCN(C)CCCc1nc2ccccc2[nH]1 (relative stereo) [Example 77, rac-(1R*,2S*,4R*,5S*)-2-(2-{[3-(1H-Benzoimidazol-2-yl)-propyl]-methyl-amino}-ethyl)-5-methoxy-5-phenyl-bicyclo[2.2.2]octan-2-ol]	9100
COCC(C)(COC)C(=O)N(C)CCCN(C)CC[C@]1(OC(=O)C(C)C)C[C@H]2CC[C@@H]1C(c1ccccc1)=C2C (relative stereo) [Example 53A, rac-Isobutyric acid (1R*,2R*,4R*)-2-[2-({3-[(3-methoxy-2-methoxymethyl-2-methyl-propionyl)-methyl-amino]-propyl}-methyl-amino)-ethyl]-5-methyl-6-phenyl-bicyclo[2.2.2]oct-5-en-2-yl ester]	688
COc1ccc(C2=CC3CCC2CC3(O)CCN(C)CCCc2nc3ccccc3[nH]2)cc1 (racemic) [Example 22, rac-(1R*,2R*,4R*)-2-(2-{[3-(1H-Benzoimidazol-2-yl)-propyl]-methyl-amino}-ethyl)-5-(4-methoxy-phenyl)-2-yl-bicyclo[2.2.2]oct-5-en-2-ol]	> 10000
CN(CC[C@]1(O)C[C@H]2CC[C@@H]1C=C2c1ccccc1)Cc1nc2ccccc2[nH]1 (relative stereo) [Example 14, rac-(1R*,2R*,4R*)-2-{2-[(1H-Benzoimidazol-2-ylmethyl)-methyl-amino]-ethyl}-5-phenyl-bicyclo[2.2.2]oct-5-en-2-ol]	8950
CC(C)C(=O)O[C@@]1(CCN(C)CCCc2nc3ccccc3[nH]2)C[C@H]2CC[C@@H]1C=C2c1ccc(F)cc1 (relative stereo) [Example 8A, rac-Isobutyric acid (1R*,2R*,4R*)-2-(2-{[3-(1H-benzoimidazol-2-yl)-propyl]-methyl-amino}-ethyl)-5-(4-fluoro-phenyl)-bicyclo[2.2.2]oct-5-en-2-yl ester]	1630
